Laboratory results published in US20070049564A1 (Wyeth, priority 2005, published 2007).
Values after ≈ are worked out from the molar mass of the structure shown. Like-named read-outs stand apart in the source and are kept apart here.

Assays:
Staph. = assay: Range of MIC for Staph. strains, including MRSA; conditions: Staphylococcus aureus
Staph. aureus Smith = assay: In vivo activity (oral, iv; ED50) against Staph. aureus Smith in mice
Description: Representative examples of compounds of Formula I were tested for the oral efficacy using S. aureus Smith in mice.

E. coli #311 = assay: In vivo activity (oral, iv; ED50) against E. coli in mice; conditions: Escherichia coli
From the text: . […] Smith and E. Coli #311 in mammals.
Results of the tests (MIC, oral and IV) are list in Table 7.

E. coli = assay: Range of MIC for E. coli strains; conditions: Escherichia coli
[1] = MRSA, read-out: Range of MIC, Staph (Mouse Serum)
[2] = MRSA, read-out: Range of MIC, Staph (Water)
[3] = read-out: Minimum inhibitory concentration (MIC), Staph (Human Serum)
[4] = Staphylococcus aureus, in Mus musculus, po, read-out: ED50 Staph Smith SOD
[5] = iv, read-out: ED50 Staph Smith SIV
[6] = single intravenous dose (SIV), read-out: ED50 E. coli #311 SIV
[7] = single oral dose (SOD), read-out: ED50 E. coli #311 SOD
[8] = 20 h, read-out: Range of MIC, E. coli (Mouse Serum)
[9] = read-out: Range of MIC, E. coli (Water)

SMILES	MIC (Staph.; [1])	MIC (Staph.; [2])	MIC (Staph.; [3])	MIC (Staph.; read-out: Minimum inhibitory concentration (MIC), Staph (Water))	ED50 (Staph. aureus Smith; [4])	ED50 (Staph. aureus Smith; [5])	ED50 (E. coli #311; [6])	ED50 (E. coli #311; [7])	MIC (E. coli; [8])	MIC (E. coli; [9])
CN(C)c1cc(NC(=O)CN(C(=O)OCOC(=O)c2ccc(C(F)(F)F)cc2)C(C)(C)C)c(O)c2c1C[C@H]1C[C@H]3[C@H](N(C)C)C(O)=C(C(N)=O)C(=O)[C@@]3(O)C(O)=C1C2=O [Example 55, ({[(2-{[(5aR,6aS,7S,10aS)-9-(aminocarbonyl)-4,7-bis(dimethylamino)-1,8,10a,11-tetrahydroxy-10,12-dioxo-5,5a,6,6a,7,10,10a,12-octahydrotetracen-2-yl]amino}-2-oxoethyl)(tert-butyl)amino]carbonyl}oxy)methyl 4-(trifluoromethyl)benzoate]	1 to 2 µg/mL (≈ 1.2 to 2.4 µM)	2 to 8 µg/mL (≈ 2.4 to 9.62 µM)	1 to 4 µg/mL (≈ 1.2 to 4.81 µM)	2 to 8 µg/mL (≈ 2.4 to 9.62 µM)	> 16 mg/kg	1.81 mg/kg	4.69 mg/kg	32 mg/kg	0.5 to 8 µg/mL (≈ 0.601 to 9.62 µM)	
CN(C)c1cc(NC(=O)CN(C(=O)OCOC(=O)c2ccc(-c3ccccc3)cc2)C(C)(C)C)c(O)c2c1C[C@H]1C[C@H]3[C@H](N(C)C)C(O)=C(C(N)=O)C(=O)[C@@]3(O)C(O)=C1C2=O [Example 71, ({[(2-{[(5aR,6aS,7S,10aS)-9-(aminocarbonyl)-4,7-bis(dimethylamino)-1,8,10a,11-tetrahydroxy-10,12-dioxo-5,5a,6,6a,7,10,10a,12-octahydrotetracen-2-yl]amino}-2-oxoethyl)(tert-butyl)amino]carbonyl}oxy)methyl 1,1′-biphenyl-4-carboxylate]	0.5 to 1 µg/mL (≈ 0.595 to 1.19 µM)	32 to 64 µg/mL (≈ 38.1 to 76.2 µM)			> 32 mg/kg	1 mg/kg	> 4 mg/kg	> 32 mg/kg	0.12 to 0.25 µg/mL (≈ 0.143 to 0.298 µM)	> 64 µg/mL
CN(C)c1cc(NC(=O)CN(C(=O)OCOC(=O)C(c2ccccc2)c2ccccc2)C(C)(C)C)c(O)c2c1C[C@H]1C[C@H]3[C@H](N(C)C)C(O)=C(C(N)=O)C(=O)[C@@]3(O)C(O)=C1C2=O [Example 74, ({[(2-{[(5aR,6aS,7S,10aS)-9-(aminocarbonyl)-4,7-bis(dimethylamino)-1,8,10a,11-tetrahydroxy-10,12-dioxo-5,5a,6,6a,7,10,10a,12-octahydrotetracen-2-yl]amino}-2-oxoethyl)(tert-butyl)amino]carbonyl}oxy)methyl diphenylacetate]	0.5 to 4 µg/mL (≈ 0.586 to 4.68 µM)				> 32 mg/kg	1.08 mg/kg	> 4 mg/kg	> 32 mg/kg	0.25 to 1 µg/mL (≈ 0.293 to 1.17 µM)	> 64 µg/mL
CC(C)Oc1ccc(C(=O)OCOC(=O)N(CC(=O)Nc2cc(N(C)C)c3c(c2O)C(=O)C2=C(O)[C@]4(O)C(=O)C(C(N)=O)=C(O)[C@@H](N(C)C)[C@@H]4C[C@@H]2C3)C(C)(C)C)cc1 [Example 96, ({[(2-{[(5aR,6aS,7S,10aS)-9-(aminocarbonyl)-4,7-bis(dimethylamino)-1,8,10a,11-tetrahydroxy-10,12-dioxo-5,5a,6,6a,7,10,10a,12-octahydrotetracen-2-yl]amino}-2-oxoethyl)(tert-butyl)amino]carbonyl}oxy)methyl 4-isopropoxybenzoate]	0.25 to 1 µg/mL (≈ 0.304 to 1.22 µM)	4 to 16 µg/mL (≈ 4.87 to 19.5 µM)			16 to 32 mg/kg	1 to 2 mg/kg	2 to 4 mg/kg	> 32 mg/kg	0.25 to 1 µg/mL (≈ 0.304 to 1.22 µM)	
CCCCCCCOc1ccc(C(=O)OCOC(=O)N(CC(=O)Nc2cc(N(C)C)c3c(c2O)C(=O)C2=C(O)[C@]4(O)C(=O)C(C(N)=O)=C(O)[C@@H](N(C)C)[C@@H]4C[C@@H]2C3)C(C)(C)C)cc1 [Example 102, ({[(2-{[(5aR,6aS,7S,10aS)-9-(aminocarbonyl)-4,7-bis(dimethylamino)-1,8,10a,11-tetrahydroxy-10,12-dioxo-5,5a,6,6a,7,10,10a,12-octahydrotetracen-2-yl]amino}-2-oxoethyl)(tert-butyl)amino]carbonyl}oxy)methyl 4-(heptyloxy)benzoate]	0.5 to 1 µg/mL (≈ 0.569 to 1.14 µM)		> 64 µg/mL		19.8 mg/kg	1.59 mg/kg	2 to 4 mg/kg	> 32 mg/kg	0.5 to 1 µg/mL (≈ 0.569 to 1.14 µM)	> 64 µg/mL
